Measured values from patent US8829203B2, “3′,6-substituted indirubins and their biological applications” (Centre National de la Recherche Scientifique (CNRS), priority 2008, dated 2014).

Assays:
[1] = molecular target: GSK-3α/β; test: GSK-3α/β kinase assay (GS-1 substrate, 15 μM ATP); type: biochemical, porcine; settings: 30° C., 30 min, read-out: GSK3 IC50
Description: (§1) Blank values were subtracted and activities calculated as pmoles of phosphate incorporated during a […] incubation. The activities were expressed in % of the maximal activity, i.e. in the absence of inhibitors. Controls were performed with appropriate dilutions of dimethylsulfoxide. Phosphorylation of the substrate was assessed by the P81 phosphocellulose assay.
GSK-3α/β was purified from porcine brain by affinity chromatography on immobilized axin^5. […] ATP (3,000 Ci/mmol; 10 mCi/ml) in a final volume of 30 μl. After 30 min. incubation at 30° C., 25 μl aliquots of supernatant were processed as described above.

[2] = molecular target: CDK1/cyclin B; test: CDK1/cyclin B kinase assay (histone H1, 15 μM ATP); type: biochemical, starfish (Marthasterias glacialis); settings: 30° C., 30 min
[3] = molecular target: CDK5/p25 (Homo sapiens, UniProt Q00535); test: CDK5/p25 kinase assay (histone H1, 15 μM ATP); type: biochemical; settings: 30° C., 30 min
Description: as §1
CDK5/p25 was reconstituted by mixing equal amounts of recombinant human CDK5 and p25 expressed in E. coli as GST (Glutathione-S-transferase) fusion proteins and purified by affinity chromatography on glutathione-agarose (p25 is a truncated version of p35, the 35 kDa CDK5 activator). Its activity was assayed with histone H1 in buffer C as described for CDK1/cyclin B.

[4] = system: Per2 promoter (PPer2) activity, Rat-1 fibroblasts; test: Luminescence assay of circadian rhythmicity, Rat-1 fibroblasts PPer2::Fluc; type: cell-based; settings: 10 μM, left continuously, monitored 4 days
Description: FIGS. 3a and 3b: the alteration of the circadian period in mammalian fibroblasts by the indirubin derivatives. Rat-1 fibroblasts stably transfected with a PPer2::Fluc reporter construct show a robust circadian rhythm of luminescence as a gauge of clock-controlled Per2 promoter (PPer2) activity. Cells were cultured up to 100% confluence and treated for 2 h with 0.1 μM dexamethasone to synchronize the oscillators. The medium was then replaced with assay medium supplemented with 0.1 mM luciferin and the luminescence rhythm was monitored for 4 days or more. Compounds were added to the culture dishes at 10 μM and left continuously. DMSO was used as a solvent control. Regression analyses were used to determine period and phase of the luminescence rhythms. 3a. Time-course of a typical luminescence rhythm recorded in control cells (◯) or cells treated with indirubin 15 (•). White arrows indicate the peaks of luminescence in control cells, black arrows indicate the peaks of luminescence in indirubin 15 treated cells. 3b. Period lengths calculated in cells exposed to various compounds. C, control; K, kenpaullone.
The cells were cultured in DMEM (11965-092, GIBCO/Invitrogen) supplemented with 5% FBS, 50 units/ml penicillin, and 50 μg/ml streptomycin in a 5% CO2 incubator at 37° C. […] The luminescence rhythm was monitored in a LumiCycle (Actimetrics Inc., Evanston, Ill., USA). […]

Chain of CDK5/p25 (Q00535 whole entry): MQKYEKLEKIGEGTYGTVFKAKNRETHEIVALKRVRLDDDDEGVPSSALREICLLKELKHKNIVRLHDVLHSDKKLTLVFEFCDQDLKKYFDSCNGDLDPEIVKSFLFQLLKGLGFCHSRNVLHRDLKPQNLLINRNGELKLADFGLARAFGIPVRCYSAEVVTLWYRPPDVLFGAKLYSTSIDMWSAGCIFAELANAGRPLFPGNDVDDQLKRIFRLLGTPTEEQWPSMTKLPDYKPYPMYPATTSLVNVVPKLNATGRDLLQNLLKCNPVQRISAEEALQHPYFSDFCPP
Chain of CDK5/p25 (Q15078 99-307 partner limits assumed): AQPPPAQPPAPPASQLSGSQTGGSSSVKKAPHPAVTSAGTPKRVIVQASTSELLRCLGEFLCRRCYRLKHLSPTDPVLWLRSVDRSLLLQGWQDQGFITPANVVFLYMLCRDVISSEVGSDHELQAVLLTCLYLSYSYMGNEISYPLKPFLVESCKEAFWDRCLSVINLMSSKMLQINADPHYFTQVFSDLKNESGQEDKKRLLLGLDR

- IC50 [1]: 14 nM
- IC50 [2]: 900 nM
- IC50 [3]: 310 nM
Structure (SMILES): O=C1Nc2cc(Br)ccc2/C1=C1/Nc2ccccc2/C1=N\OCCN1CCN(CCOCCO)CC1 [Cpd 15, (2′Z-3′E)-6-Bromoindirubin-3′-[O-(2-{4-[2-(2-hydroxyethoxy)-ethyl]piperazin-1-yl}ethyl)oxime]]
- Circadian period length of luminescence rhythm [4]: gradual shortening of the period length
